Patent publication US20260125378A2, “Heterocyclic Compounds” (BeOne Medicines I GmbH, priority 2023, published 2026)

Experiments:
[1] = target: T1, Full length DGKα (D21-10BG, SignalChem) (Homo sapiens, UniProt P23743); experiment: Biochemical DGK IC50 assay (ADP-Glo, lipid micelle substrate), DGKα; settings: 1 hour preincubation, 1 hour reaction, room temperature
T1 construct: Full length DGKα (D21-10BG, SignalChem); purchased SignalChem D21-10BG
Method in brief: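 Full-length human DGKα with DAG/PS lipid micelle substrate (in octyl glucoside buffer), reacted 1 h at room temperature in 50 mM HEPES, 10 mM MgCl2, 0.01 mM CaCl2, 0.1 mM Na3VO4, 0.01% BSA, 0.005% Tween-20. ADP formed read by ADP-Glo luminescence; IC50 from inhibition across increasing compound concentrations.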

[2] = target: T2, Full length DGKζ (in-house protein M1-V929) (Homo sapiens, UniProt Q13574); experiment: Biochemical DGK IC50 assay (ADP-Glo, lipid micelle substrate), DGKζ; settings: 1 hour preincubation, 1 hour reaction, room temperature
T2 construct: His (N); TEV site (N); made in house; host or cells: Sf9 insect cells (Bac-to-Bac baculovirus)
Method in brief: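 Full-length human DGKζ (M1-V929, His-TEV tagged, Sf9 baculovirus-expressed) with DAG/PS lipid micelle substrate in octyl glucoside, at room temperature in 50 mM HEPES, 10 mM MgCl2, 0.01 mM CaCl2 buffer.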

T1 sequence (P23743 whole entry): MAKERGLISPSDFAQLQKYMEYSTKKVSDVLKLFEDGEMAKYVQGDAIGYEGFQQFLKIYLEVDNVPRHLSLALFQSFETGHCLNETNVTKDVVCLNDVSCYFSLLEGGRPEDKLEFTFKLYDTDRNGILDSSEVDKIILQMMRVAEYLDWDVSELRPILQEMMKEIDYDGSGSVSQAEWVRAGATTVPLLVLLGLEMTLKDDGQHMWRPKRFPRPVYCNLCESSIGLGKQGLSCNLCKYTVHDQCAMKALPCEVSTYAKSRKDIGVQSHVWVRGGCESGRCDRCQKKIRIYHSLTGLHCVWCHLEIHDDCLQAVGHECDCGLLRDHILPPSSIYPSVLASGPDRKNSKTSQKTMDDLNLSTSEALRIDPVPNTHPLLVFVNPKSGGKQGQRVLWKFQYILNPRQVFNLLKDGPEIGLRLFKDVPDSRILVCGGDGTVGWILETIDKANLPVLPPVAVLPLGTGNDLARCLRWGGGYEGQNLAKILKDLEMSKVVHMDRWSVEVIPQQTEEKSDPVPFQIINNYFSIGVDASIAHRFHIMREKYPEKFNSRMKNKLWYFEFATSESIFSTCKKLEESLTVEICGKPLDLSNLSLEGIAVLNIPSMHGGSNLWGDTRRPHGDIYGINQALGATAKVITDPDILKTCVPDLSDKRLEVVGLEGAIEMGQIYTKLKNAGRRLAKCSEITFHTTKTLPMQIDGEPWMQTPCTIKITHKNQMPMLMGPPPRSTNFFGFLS
T2 sequence (Q13574 1-929 isoform Q13574-4): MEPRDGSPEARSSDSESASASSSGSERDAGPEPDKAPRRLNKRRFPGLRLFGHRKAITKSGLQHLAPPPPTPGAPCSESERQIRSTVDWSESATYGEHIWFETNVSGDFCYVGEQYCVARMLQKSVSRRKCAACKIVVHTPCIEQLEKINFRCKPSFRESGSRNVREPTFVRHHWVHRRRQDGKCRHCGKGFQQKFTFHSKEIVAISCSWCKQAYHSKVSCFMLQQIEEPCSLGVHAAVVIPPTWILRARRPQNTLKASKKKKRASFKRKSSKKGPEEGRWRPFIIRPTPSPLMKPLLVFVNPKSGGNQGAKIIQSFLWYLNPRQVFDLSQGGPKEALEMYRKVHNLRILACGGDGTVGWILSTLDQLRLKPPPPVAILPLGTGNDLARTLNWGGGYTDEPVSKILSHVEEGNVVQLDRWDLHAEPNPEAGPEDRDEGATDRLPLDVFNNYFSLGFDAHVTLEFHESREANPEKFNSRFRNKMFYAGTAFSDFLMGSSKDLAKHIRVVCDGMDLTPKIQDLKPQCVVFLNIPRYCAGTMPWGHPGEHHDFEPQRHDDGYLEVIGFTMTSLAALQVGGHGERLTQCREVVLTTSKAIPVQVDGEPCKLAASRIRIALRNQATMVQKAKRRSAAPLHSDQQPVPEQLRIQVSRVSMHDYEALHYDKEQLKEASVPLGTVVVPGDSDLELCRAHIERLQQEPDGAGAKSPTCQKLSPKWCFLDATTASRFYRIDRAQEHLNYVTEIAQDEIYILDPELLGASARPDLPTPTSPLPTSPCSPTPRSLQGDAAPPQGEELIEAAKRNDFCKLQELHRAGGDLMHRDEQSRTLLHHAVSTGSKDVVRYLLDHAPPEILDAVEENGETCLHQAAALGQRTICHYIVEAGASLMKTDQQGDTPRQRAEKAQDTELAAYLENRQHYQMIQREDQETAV

Row | Compound | IC50 [1] | IC50 [2]
1 | CCn1c(CC#N)nc2c(N3C[C@@H](C)N(C(C)c4cccc(OC(F)(F)F)c4)C[C@@H]3C)nc(=O)n(C)c21 (stereo partly drawn) [Compound A44, 2-(6-((2S,5R)-2,5-dimethyl-4-(1-(3-(trifluoromethoxy)phenyl)ethyl)piperazin-1-yl)-9-ethyl-3-methyl-2-oxo-3,9-dihydro-2H-purin-8-yl)acetonitrile] | 51200 nM | 34 nM
2 | CC(c1ccc(C(F)(F)F)cn1)N1C[C@H](C)N(c2nc(=O)n(C)c3c2nc(CC#N)n3C)C[C@H]1C (single isomer, unassigned) [Compound A148b] | 666 nM | 176 nM
3 | CCn1c(CC#N)nc2c(N3C[C@@H](C)N(C(C)c4cccc(OC(C)C)n4)C[C@@H]3C)nc(=O)n(C)c21 (single isomer, unassigned) [Compound A117a] | > 150000 nM | 3300 nM
4 | COc1cc(F)ccc1C(C)N1C[C@H](C)N(c2nc(=O)n(C)c3c2nc(CC#N)n3C)C[C@H]1C (single isomer, unassigned) [Compound A24b] | 131000 nM | 42 nM
5 | CCn1c(CC#N)nc2c(N3C[C@@H](C)N(C(C)c4cc(Cl)c5c(c4)OC(C)(C)CO5)C[C@@H]3C)nc(=O)n(C)c21 (stereo partly drawn) [Compound A72, 2-(6-((2S,5R)-4-(1-(8-chloro-3,3-dimethyl-2,3-dihydrobenzo[b][1,4]dioxin-6-yl)ethyl)-2,5-dimethylpiperazin-1-yl)-9-ethyl-3-methyl-2-oxo-3,9-dihydro-2H-purin-8-yl)acetonitrile] | > 150000 nM | 64 nM
6 | CCn1c(CC#N)nc2c(N3C[C@@H](C)N(C(C)c4ccc(=O)n(C)c4)C[C@@H]3C)nc(=O)n(C)c21 (stereo partly drawn) [Compound A106, 2-(6-((2S,5R)-2,5-dimethyl-4-(1-(1-methyl-6-oxo-1,6-dihydropyridin-3-yl)ethyl)piperazin-1-yl)-9-ethyl-3-methyl-2-oxo-3,9-dihydro-2H-purin-8-yl)acetonitrile] | > 150000 nM | > 10000 nM
7 | CC#CC(c1ccc(C)cc1)N1C[C@H](C)N(c2nc(=O)n(C)c3c2nc(CC#N)n3CC)C[C@H]1C (stereo partly drawn) [Compound A145, 2-(6-((2S,5R)-2,5-dimethyl-4-(1-(p-tolyl)but-2-yn-1-yl)piperazin-1-yl)-9-ethyl-3-methyl-2-oxo-3,9-dihydro-2H-purin-8-yl)acetonitrile] | 5620 nM | 480 nM
8 | Cc1ccc(C(C)N2C[C@H](C)N(c3cc(=O)n(C)c4c3nc(CC#N)n4C)C[C@H]2C)c(C(F)(F)F)c1 (single isomer, unassigned) [Compound A8a] | > 10000 nM | 1480 nM
9 | CC(c1ccc2c(c1)OCCO2)N1C[C@H](C)N(c2nc(=O)n(C)c3c2nc(CC#N)n3C)C[C@H]1C (stereo partly drawn) [Compound A58, 2-(6-((2S,5R)-4-(1-(2,3-dihydrobenzo[b][1,4]dioxin-6-yl)ethyl)-2,5-dimethylpiperazin-1-yl)-3,9-dimethyl-2-oxo-3,9-dihydro-2H-purin-8-yl)acetonitrile] | > 10000 nM | 40 nM
10 | CCn1c(CC#N)nc2c(N3C[C@@H](C)N(C(C)c4ccc5c(c4)OC(C)(C)CO5)C[C@@H]3C)c(F)c(=O)n(C)c21 (stereo partly drawn) [Compound A20, 2-(7-((2S,5R)-4-(1-(3,3-dimethyl-2,3-dihydrobenzo[b][1,4]dioxin-6-yl)ethyl)-2,5-dimethylpiperazin-1-yl)-3-ethyl-6-fluoro-4-methyl-5-oxo-4,5-dihydro-3H-imidazo[4,5-b]pyridin-2-yl)acetonitrile] | 93000 nM | 5 nM
11 | Cc1ccc(C(C)N2C[C@H](C)N(c3cc(=O)n(C)c4sc(CC#N)nc34)C[C@H]2C)c(C(F)(F)F)c1 (stereo partly drawn) [Compound A196, 2-(7-((2S,5R)-2,5-dimethyl-4-(1-(4-methyl-2-(trifluoromethyl)phenyl)ethyl)piperazin-1-yl)-4-methyl-5-oxo-4,5-dihydrothiazolo[5,4-b]pyridin-2-yl)acetonitrile] | > 10000 nM | 749 nM
12 | CC(c1ccc2c(c1)OC(F)(F)O2)N1C[C@H](C)N(c2nc(=O)n(C)c3c2nc(CC#N)n3C)C[C@H]1C (stereo partly drawn) [Compound A167, 2-(6-((2S,5R)-4-(1-(2,2-difluorobenzo[d][1,3]dioxol-5-yl)ethyl)-2,5-dimethylpiperazin-1-yl)-3,9-dimethvl-2-oxo-3,9-dihydro-2H-purin-8-yl)acetonitrile] | 19000 nM | 90 nM
13 | CC[C@@H]1CN(c2nc(=O)n(C)c3c2nc(CC#N)n3C)[C@@H](C)CN1C(C)c1ccc2ncc(C)nc2c1 (single isomer, unassigned) [Compound A50a] | 24700 nM | 4 nM
14 | CCn1c(CC#N)nc2c(N3C[C@@H](C)N(C(C)c4cccc(C(C)(C)CO)c4)C[C@@H]3C)nc(=O)n(C)c21 (stereo partly drawn) [Compound A133, 2-(9-ethyl-6-((2S,5R)-4-(1-(3-(1-hydroxy-2-methylpropan-2-yl)phenyl)ethyl)-2,5-dimethylpiperazin-1-yl)-3-methyl-2-oxo-3,9-dihydro-2H-purin-8-yl)acetonitrile] | > 150000 nM | 111 nM
15 | CCn1c(CC#N)nc2c(N3C[C@@H](C)N(C(C)c4cccc5c4OC(F)(F)O5)C[C@@H]3C)nc(=O)n(C)c21 (stereo partly drawn) [Compound A187, 2-(6-((2S,5R)-4-(1-(2,2-difluorobenzo[d][1,3]dioxol-4-yl)ethyl)-2,5-dimethylpiperazin-1-yl)-9-ethyl-3-methyl-2-oxo-3,9-dihydro-2H-purin-8-yl)acetonitrile] | 115000 nM | 407 nM
16 | CCn1c(CC#N)nc2c(N3C[C@@H](C)N(C(C)c4ccc5c(c4)C(C)(C)CO5)C[C@@H]3C)nc(=O)n(C)c21 (stereo partly drawn) [Compound A183, 2-(6-((2S,5R)-4-(1-(3,3-dimethyl-2,3-dihydrobenzofuran-5-yl)ethyl)-2,5-dimethylpiperazin-1-yl)-9-ethyl-3-methyl-2-oxo-3,9-dihydro-2H-purin-8-yl)acetonitrile] | > 150000 nM | 4 nM
17 | CCn1c(CC#N)nc2c(N3C[C@@H](C)N(C(C)c4cc(F)c5c(c4)OC(C)(C)O5)C[C@@H]3C)nc(=O)n(C)c21 (single isomer, unassigned) [Compound A173a] | 51000 nM | 12 nM
18 | CC(c1ccc2nccnc2c1)N1C[C@H](C)N(c2cc(=O)n(C)c3c2nc(CC#N)n3C)C[C@H]1C (single isomer, unassigned) [Compound A1b] | > 10000 nM | 2350 nM
19 | Cc1ccc(C(C)N2C[C@H](C)N(c3cc(=O)n(C)c4c3nc(CC#N)n4C)C[C@H]2C)cc1 (single isomer, unassigned) [Compound A5b] | 616 nM | 88 nM
20 | CCn1c(CC#N)nc2c(N3C[C@@H](C)N(C(C)c4ccc(F)cc4C(F)(F)F)C[C@@H]3C)nc(=O)n(C)c21 (single isomer, unassigned) [Compound A35b] | > 150000 nM | 24 nM
21 | CCn1c(CC#N)nc2c(N3C[C@@H](C)N(C(C)c4ccc(F)c5c4OC(C)(C)O5)C[C@@H]3C)nc(=O)n(C)c21 (single isomer, unassigned) [Compound A185b] | 82500 nM | 20 nM
22 | CCn1c(CC#N)nc2c(N3C[C@@H](C)N(C(C)c4ccnc(NC(C)C)c4)C[C@@H]3C)nc(=O)n(C)c21 (stereo partly drawn) [Compound A122, 2-(9-ethyl-6-((2S,5R)-4-(1-(2-(isopropylamino)pyridin-4-yl)ethyl)-2,5-dimethylpiperazin-1-yl)-3-methyl-2-oxo-3,9-dihydro-2H-purin-8-yl)acetonitrile] | > 150000 nM | 834 nM
23 | CCn1c(CC#N)nc2c(N3C[C@@H](C)N(C(C)c4ccc5c(n4)OC(C)(C)CO5)C[C@@H]3C)nc(=O)n(C)c21 (single isomer, unassigned) [Compound A74a] | > 150000 nM | 46 nM
24 | CCn1c(CC#N)nc2c(N3C[C@@H](C)N(C(C)c4cc5c(cc4F)OC(C)(C)CO5)C[C@@H]3C)nc(=O)n(C)c21 (single isomer, unassigned) [Compound A156b] | 14100 nM | 6 nM
25 | CCn1c(CC#N)nc2c(N3C[C@@H](C)N(C(C)c4ccc(CN5CCOCC5)cc4)C[C@@H]3C)nc(=O)n(C)c21 (stereo partly drawn) [Compound A139, 2-(6-((2S,5R)-2,5-dimethyl-4-(1-(4-(morpholinomethyl)phenyl)ethyl)piperazin-1-yl)-9-ethyl-3-methyl-2-oxo-3,9-dihydro-2H-purin-8-yl)acetonitrile] | 120000 nM | 2190 nM
26 | CCn1c(CC#N)nc2c(N3C[C@@H](C)N(C(C)c4ccc5c(c4)OC4(CCC4)O5)C[C@@H]3C)nc(=O)n(C)c21 (single isomer, unassigned) [Compound A169b] | 78200 nM | 455 nM
27 | CCn1c(CC#N)nc2c(N3C[C@@H](C)N(C(C)c4cccc(C(C)C)c4)C[C@@H]3C)nc(=O)n(C)c21 (single isomer, unassigned) [Compound A108b] | 95800 nM | 822 nM
28 | CCn1c(CC#N)nc2c(N3C[C@@H](C)N(C(C)c4cc(F)c5c(n4)OC(C)(C)CO5)C[C@@H]3C)nc(=O)n(C)c21 (single isomer, unassigned) [Compound A163a] | > 150000 nM | 13 nM
29 | CC[C@@H]1CN(c2nc(=O)n(C)c3c2nc(CC#N)n3C)[C@@H](C)CN1C(C)c1ccc2c(n1)OC(C)(C)CO2 (single isomer, unassigned) [Compound A159b] | 63400 nM | 691 nM
